The values below come from patent publication US20230129258A1, “HETEROTANDEM BICYCLIC PEPTIDE COMPLEXES” (BicycleTx Limited, priority 2019, published 2023).

Molecules are shown by their SMILES. Bounds are passed on as bounds.

Series [1] has as its target T1, CD137 (Homo sapiens, UniProt Q07011). In words: CD137 reporter assay (Promega CD137 luciferase reporter, Jurkat cells) in co-culture with Nectin-4-expressing tumor cells. Type of series: cell-based. More on the design: host or cells: Jurkat reporter cells. The conditions noted are these: for EC50: Arithmetic mean EC50 (nM). (In general: Reporter assays use an easily measured gene product as a stand-in for the process of interest.)

In series [2] the test system is TNF family receptors OX40 and CD40. The series can be described thus: CD137 paralogue screening by SPR. Format: binding. Particulars: streptavidin captured peptide, soluble receptors. How it is done: CD137 Paralogue screening: Binding of streptavidin captured BCY13582 (biotinylated-BCY11863) was assessed using SPR against soluble TNF family receptors OX40 and CD40.

Series [3] concerns 5484 full-length human plasma membrane proteins and secreted proteins expressed in HEK293 cells. In words: Retrogenix cell microarray off-target screening. Particulars: 1 μM test peptide. Format: binding. How it is done: Retrogenix microarray screening: Retrogenix's cell microarray technology was used to screen for specific off-target binding interactions of a biotinylated BCY11863 known as BCY13582.
Under these conditions, the test peptide was screened for binding against human HEK293 cells, individually expressing 5484 full-length human plasma membrane proteins and secreted proteins.
Each primary hit was re-expressed, along with two control receptors (TGFBR2 and EGFR), and re-tested with 1 μM BCY13582 test peptide, 1 μM BCY13582 test peptide in the presence of 100 μM BCY11863, and other positive and negative control treatments (FIG. 4). […] These were untethered and tethered forms of Nectin-4, and CD137—the primary targets.

Another series concerns the target T2, OX40 (Homo sapiens, UniProt P43489).
T2 construct: host or cells: OX40 Jurkat cells
T2 sequence (P43489 29-277): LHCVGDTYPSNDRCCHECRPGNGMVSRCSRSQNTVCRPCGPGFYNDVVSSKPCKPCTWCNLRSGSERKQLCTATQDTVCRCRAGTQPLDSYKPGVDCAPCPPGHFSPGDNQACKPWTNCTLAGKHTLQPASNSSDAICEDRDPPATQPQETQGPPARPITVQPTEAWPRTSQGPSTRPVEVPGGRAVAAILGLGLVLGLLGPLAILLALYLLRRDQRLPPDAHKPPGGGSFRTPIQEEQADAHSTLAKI
In words: Promega OX40 cell-activity assay (NF-kB luciferase, Jurkat) in co-culture with 4T1-D02 tumor cells. Type of series: cell-based. The conditions noted are these: co-culture with Nectin-4 positive 4T1-D02 cells. As for the experimental part:
Promega have developed an OX40 cell-activity assay that uses NF-κB luciferase luminescence as a read-out of OX40 activation in Jurkat cells (Promega CS197704). On the day of the experiment, prepare medium by thawing FBS and adding 5% FBS to RPMI-1640. Thaw OX40 Jurkat cells in the water-bath and then add 500 μl cells to 11.5 ml pre-warmed 5% FBS RPMI-1640 medium. Add 55 μl cells/well to white cell culture plates. Harvest tumor cells from culture. 4T1 is a Nectin-4 negative murine mammary gland epithelial cancer cell and it was genetically modified to express murine Nectin-4 on the cell surface (4T1 Nectin-4 positive; clone 411-D02). Tumor cells were cultured to 80% confluency in vitro in RPM11640 medium supplemented with 10% heat-inactivated FBS, 1× Penicillin/Streptomycin, 1× L-Glutamine, 20 mM HEPES and 1×NEAA (RPMI working medium). Tumor cells were trypsinized and washed two times at 1500 rpm for 5 minutes in RPM11640 working medium prewarmed to 37° C. Count cells and resuspend at 2,000,000 cells/mL in R5 media (for 10,000 cells/well). Add 5 μL of tumor cells per well. […]
Co-incubate cells together with agonists for 6 hours at 37° C., 5% CO2. […] Read luciferase signal on CLAIROStar plate-reader using the MARS program and normalize the fold induction relative to background (medium alone). […]

In series [4] the target is T1, CD137. In words: CD137 reporter assay (Promega, Jurkat cells) in co-culture with PD-L1-expressing RKO cells. The conditions noted are these: read-out: Fold Induction over background. Details: host or cells: Jurkat reporter cells. Type of series: cell-based. As for the experimental part:
Culture medium, referred to as R1 media, is prepared by adding 1% FBS to RPMI-1640 (component of Promega kit CS196005). Serial dilutions of test articles in R1 are prepared in a sterile 96 well-plate. Add 25 μL per well of test articles or R1 (as a background control) to designated wells in a white cell culture plate. Tumor cells* are harvested and resuspended at a concentration of 400,000 cells/mL in R1 media. Twenty five (25) μL/well of tumor cells are added to the white cell culture plate. Jurkat cells (Promega kit CS196005, 0.5 mL) are thawed in the water bath and then added to 5 ml pre-warmed R1 media. Twenty five (25) μL/well of Jurkat cells are then added to the white cell culture plate. Incubate the cells and test articles for 6 h at 37° C., 5% CO2. At the end of 6 h, add 75 μL/well Bio-Glo™ reagent (Promega) and incubate for 10 min before reading luminescence in a plate reader (Clariostar, BMG). The fold change relative to cells alone (Jurkat cells+Cell line used in co-culture) is calculated and plotted in GraphPad Prism as log(agonist) vs response to determine EC50 (nM) and Fold Induction over background (Max).
The tumor cell types used in co-culture for EphA2 are A549, PC3 and HT29. The tumor cell type used in co-culture for PD-L1 is RKO.

T1 sequence (Q07011 24-255): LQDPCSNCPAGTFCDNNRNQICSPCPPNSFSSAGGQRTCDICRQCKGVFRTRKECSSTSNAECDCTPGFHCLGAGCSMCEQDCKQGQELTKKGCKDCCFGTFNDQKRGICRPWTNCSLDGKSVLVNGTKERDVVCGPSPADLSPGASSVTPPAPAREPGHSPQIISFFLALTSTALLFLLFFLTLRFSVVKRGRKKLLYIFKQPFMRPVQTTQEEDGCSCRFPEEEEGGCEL

By EC50 is commonly meant the concentration at which the effect is half-maximal. A lower EC50 goes with greater potency. As to `CCCC[C@@H]1NC(=O)[C@H](Cc2ccc(O)cc2)NC(=O)[C@@H]2CCCN2C(=O)[C@H](CC(=O)O)NC(=O)[C@H](C)NC(=O)[C@H](Cc2ccccc2)NC(=O)[C@@H]2CSCCC(=O)N3CN(CN(C3)C(=O)CCSC[C@@H](C(=O)N[C@@H](C)C(N)=O)NC1=O)C(=O)CCSC[C@H](NC(C)=O)C(=O)N[C@@H](CC(C)(C)C)C(=O)N1CCC[C@H]1C(=O)N[C@@H](CCC(=O)O)C(=O)N[C@H](CCCCNC(=O)CCc1cn(CCOCCOCCOCCN(CCOCCOCCOCCC(=O)N[C@H]3CSCCC(=O)N4CN5CN(C4)C(=O)CCSC[C@H](NC(=O)[C@@H](CC(=O)O)NC(=O)[C@H](Cc4cccc6ccccc46)NC(=O)[C@@H]4CCCN4C3=O)C(=O)N[C@@H](CCSC)C(=O)N[C@@H](CCCCNC(=N)N)C(=O)N[C@@H](CC(=O)O)C(=O)N[C@@H](Cc3c[nH]c4ccccc34)C(=O)N[C@@H](CO)C(=O)N[C@@H]([C@@H](C)O)C(=O)N3CCC[C@H]3C(=O)N3C[C@H](O)C[C@H]3C(=O)N[C@@H](Cc3c[nH]c4ccccc34)C(=O)N[C@H](C(N)=O)CSCCC5=O)CCOCCOCCOCCn3cc(CCC(=O)NCCCC[C@H]4NC(=O)[C@H](CCC(=O)O)NC(=O)[C@@H]5CCCN5C(=O)[C@H](CC(C)(C)C)NC(=O)[C@@H](NC(C)=O)CSCCC(=O)N5CN6CN(C5)C(=O)CCSC[C@H](NC(=O)[C@H](Cc5ccc(O)cc5)NC(=O)[C@@H]5CCCN5C4=O)C(=O)N[C@@H](Cc4ccccc4)C(=O)N[C@@H](C)C(=O)N[C@@H](CC(=O)O)C(=O)N4CCC[C@H]4C(=O)N[C@@H](Cc4ccc(O)cc4)C(=O)N[C@@H](CCCC)C(=O)N[C@H](C(=O)N[C@@H](CCCCNC(=O)CCOCCOCCOCCOCCOCCOCCOCCOCCOCCOCCOCCOCCNC(=O)CCCC[C@@H]4SC[C@@H]5NC(=O)N[C@@H]54)C(N)=O)CSCCC6=O)nn3)nn1)C(=O)N1CCC[C@H]1C(=O)N[C@@H](Cc1ccc(O)cc1)C(=O)N2` [BCY13582], the EC50 was found to be 0.58 ± 0.27 nM at CD137 [1] (co-culture with HT1376 (human), Table 1B) and 0.34 ± 0.02 nM on CD137 [1] (co-culture with MDA-MB-468 (human)). Also, the Emax on CD137 [1] (co-culture with HT1376, Table 2A) is listed as 57 fold induction over background. Further, the “binding to OX40 and CD40: concentration up to which no binding was seen” value in series [2] is above 100 nM. The specific off-target interactions result in series [3] is “No specific off-target interactions”.
As to `CSCC[C@@H]1NC(=O)[C@@H]2CSCCC(=O)N3CN(CN(C3)C(=O)CCSC[C@H](NC(=O)CCOCCOCCOCCN(CCOCCOCCOCCn3cc(CCC(=O)NCCCC[C@H](NC(=O)[C@H](C)NC(=O)[C@@H]4CSCCC(=O)N5CN6CN(C5)C(=O)CCSC[C@H](NC(=O)[C@@H]5CCCN5C(=O)[C@H](CO)NC(=O)[C@H](Cc5ccc(O)cc5)NC(=O)[C@H](CC(C)C)NC(=O)[C@@H](NC(=O)[C@H](C)N)CSCCC6=O)C(=O)N[C@@H](Cc5c[nH]c6ccccc56)C(=O)N[C@@H](Cc5c[nH]cn5)C(=O)N5CCC[C@H]5C(=O)N[C@@H](CC(C)C)C(=O)N[C@@H](CC(N)=O)C(=O)N[C@@H](CC(=O)O)C(=O)N4)C(N)=O)nn3)CCOCCOCCOCCn3cc(CCC(=O)NCCCC[C@H](NC(=O)[C@H](C)NC(=O)[C@@H]4CSCCC(=O)N5CN6CN(C5)C(=O)CCSC[C@H](NC(=O)[C@@H]5CCCN5C(=O)[C@H](CO)NC(=O)[C@H](Cc5ccc(O)cc5)NC(=O)[C@H](CC(C)C)NC(=O)[C@@H](NC(=O)[C@H](C)N)CSCCC6=O)C(=O)N[C@@H](Cc5c[nH]c6ccccc56)C(=O)N[C@@H](Cc5c[nH]cn5)C(=O)N5CCC[C@H]5C(=O)N[C@@H](CC(C)C)C(=O)N[C@@H](CC(N)=O)C(=O)N[C@@H](CC(=O)O)C(=O)N4)C(N)=O)nn3)C(=O)N3CCC[C@H]3C(=O)N[C@@H](Cc3cccc4ccccc34)C(=O)N[C@H](CC(=O)O)C(=O)N2)C(=O)CCSC[C@@H](C(N)=O)NC(=O)[C@H](Cc2c[nH]c3ccccc23)NC(=O)[C@@H]2C[C@@H](O)CN2C(=O)[C@@H]2CCCN2C(=O)[C@H]([C@@H](C)O)NC(=O)[C@H](CO)NC(=O)[C@H](Cc2c[nH]c3ccccc23)NC(=O)[C@H](CC(=O)O)NC(=O)[C@H](CCCCNC(=N)N)NC1=O` [BCY12967], the OX40 agonism entry at OX40 was “potent OX40 agonism”.
On to `CCCC[C@@H]1NC(=O)[C@H](Cc2ccc(O)cc2)NC(=O)[C@@H]2CCCN2C(=O)[C@H](CC(=O)O)NC(=O)[C@H](C)NC(=O)[C@H](Cc2ccccc2)NC(=O)[C@@H]2CSCCC(=O)N3CN(CN(C3)C(=O)CCSC[C@@H](C(=O)N[C@@H](C)C(N)=O)NC1=O)C(=O)CCSC[C@H](NC(C)=O)C(=O)N[C@@H](CC(C)(C)C)C(=O)N1CCC[C@H]1C(=O)N[C@@H](CCC(=O)O)C(=O)N[C@H](CCCCNC(=O)CCc1cn(CCOCCOCCOCCOCCOCCOCCOCCOCCOCCOCCNC(=O)CCOCCN(CCOCCC(=O)NCCOCCOCCOCCOCCOCCOCCOCCOCCOCCOCCn3cc(CCC(=O)NCCCC[C@@H]4NC(=O)[C@H](CCC(N)=O)NC(=O)[C@@H]5CSCCC(=O)N6CN(CN(C6)C(=O)CCSC[C@@H](C(=O)N6CCC[C@H]6C(=O)N[C@@H](CO)C(=O)N[C@@H](Cc6c[nH]cn6)C(N)=O)NC(=O)[C@H](CC(C)C)NC(=O)[C@H](Cc6c[nH]cn6)NC(=O)[C@H](CC(C)C)NC4=O)C(=O)CCSC[C@H](NC(=O)[C@H](CCCCN)NC(=O)[C@H](CC(=O)O)NC(=O)[C@H](CO)NC(C)=O)C(=O)N[C@@H](CO)C(=O)N[C@@H](C)C(=O)NCC(=O)N[C@@H](Cc4c[nH]c6ccccc46)C(=O)N[C@@H](CC(C)C)C(=O)N[C@@H]([C@@H](C)O)C(=O)N[C@@H](CCSC)C(=O)N5)nn3)CCOCCC(=O)NCCOCCOCCOCCOCCOCCOCCOCCOCCOCCOCCn3cc(CCC(=O)NCCCC[C@H]4NC(=O)[C@H](CCC(=O)O)NC(=O)[C@@H]5CCCN5C(=O)[C@H](CC(C)(C)C)NC(=O)[C@@H](NC(C)=O)CSCCC(=O)N5CN6CN(C5)C(=O)CCSC[C@H](NC(=O)[C@H](Cc5ccc(O)cc5)NC(=O)[C@@H]5CCCN5C4=O)C(=O)N[C@@H](Cc4ccccc4)C(=O)N[C@@H](C)C(=O)N[C@@H](CC(=O)O)C(=O)N4CCC[C@H]4C(=O)N[C@@H](Cc4ccc(O)cc4)C(=O)N[C@@H](CCCC)C(=O)N[C@H](C(=O)N[C@@H](C)C(N)=O)CSCCC6=O)nn3)nn1)C(=O)N1CCC[C@H]1C(=O)N[C@@H](Cc1ccc(O)cc1)C(=O)N2` [BCY11780], for which, at CD137 [4], the fold induction was 13.
